Earlier results in patent US7001916B1, “Epothilon derivatives, method for the production and the use thereof as pharmaceuticals” (priority 1999, dated 2006).

Test system: P-glycoprotein-forming multiresistant tumor lines
Conditions: in comparison to taxol

Structure (SMILES): C/C(=C\c1csc(C)n1)[C@@H]1C[C@@H]2O[C@@H]2CCC[C@H](C)[C@H](O)[C@@H](C)C(=O)C(C)(C)[C@@H](O)CC(=O)O1 [Epothilone A, epothilone A]
- activity against P-glycoprotein-forming multiresistant tumor lines: significantly higher activity

Structure (SMILES): C/C(=C\c1csc(C)n1)[C@@H]1C[C@@H]2O[C@]2(C)CCC[C@H](C)[C@H](O)[C@@H](C)C(=O)C(C)(C)[C@@H](O)CC(=O)O1 [Epothilone B, epothilone B]
- activity against P-glycoprotein-forming multiresistant tumor lines: significantly higher activity
